# From patent US20230416207A1, “CRYSTALLINE FORMS OF QUINAZOLINONE COMPOUND AND PROCESS FOR PREPARING THE SAME” (priority 2020, published 2023)
# Tests used:
# Format in all cases: physicochemical
# [1] = Solubility of crystalline forms in simulated gastric fluid (SGF)
# Source text: (§1) The UPLC data of the present disclosure were collected on Waters H Class, with photo-diode array detector. The UPLC parameters for purity and solubility test of the present disclosure were as follows: • 1. Column: Waters Xbridge C18, 150×4.6 mm, 5 μm • 2. Mobile phase: A: 0.05% trifluoroacetic acid in water; B: 0.05% trifluoroacetic acid in acetonitrile
# Suspend Forms D, AL, and Z of the present disclosure and Form B in the prior art in simulated gastric fluid (SGF) to form suspensions, respectively. After equilibrium for 1 hour, 2 hours and 4 hours, filter the suspensions to form saturated solutions. Determine the concentration of API in corresponding saturated solution by HPLC.
# [2] = Hygroscopicity study (DVS); details: for Water uptake at 80% RH: 25° C.; for Hygroscopicity: class per Chinese Pharmacopoeia 2010
# Experimental: The dynamic vapor sorption diagrams of the present disclosure were collected on Intrinsic-type and Intrinsic Plus-type dynamic vapor sorption instruments of SMS company. The process parameters of the dynamic vapor sorption test of the present disclosure were as follows: • Temperature: 25° C. • Protection gas and its flow rate: N2, 200 mL/minute • dm/dt: 0.002%/minute • Minimum dm/dt equilibration time: 10 minutes • Maximum Equilibration Time: 180 minutes • Relative humidity range: 0% RH-95% RH-0% RH • Relative humidity gradient: 10% (0% RH-90% RH-0% RH), 5% (90% RH-95% RH and 95% RH-90% RH).
# Weigh approximately 10 mg of Form Z of the present disclosure and Form B in the prior art for DVS test, and then collect the obtained solid for XRPD analysis. The results were summarized in Table 19, DVS plot of Form B was shown in FIG. 29, XRPD overlay of Form B was shown in FIG. 30, DVS plot of Form Z was shown in FIG. 31, and XRPD overlay of Form Z was shown in FIG. 32.
# Description and definition of hygroscopicity (see appendix XIX J, guidance for hygroscopicity evaluation of Pharmacopoeia of the People's Republic of China 2010) • Deliquescent: sufficient water is absorbed to form a liquid, • Very hygroscopic: increase in mass is equal to or greater than 15 percent, • Hygroscopic: increase in mass is less than 15 percent and equal to or greater than 2 percent, • Slightly hygroscopic: increase in mass is less than 2 percent and equal to or greater than 0.2 percent. • Non-hygroscopic: increase in mass is less than 0.2 percent.
# [3] = Particle size distribution study (laser particle size analyzer); details: for D10 / D50 / D90 / MV: wet method, Isopar G (0.2% lecithin), sonication 30 s
# Experimental: The particle size distribution results of the present disclosure were collected on S3500-type laser particle size analyzer of the Microtrac company. The Microtrac S3500 was equipped with an SDC (Sample Delivery Controller) sampling system. The wet method was used in this test, using Isopar G (containing 0.2% lecithin) as the test dispersion medium. The process parameters of the laser particle size analyzer were as follows.
# Approximately 10-30 mg of Form D of the present disclosure and Form B in the prior art were added into 5 mL Isopar G (0.2% lecithin) to form a suspension, respectively. The suspension was mixed well and then loaded into SDC loading system. Adjust the shading intensity to an appropriate range, and then started to collect data after sonication for 30 s. The results were summarized in Table 20, and the particle size distribution diagrams of Form D and Form B were shown in FIGS. 35 to 36, respectively.
# [4] = Solubility of crystalline forms in fasted-state simulated intestinal fluid (FaSSIF)
# Source text: as §1
# Suspend Forms D and Z of the present disclosure and Form B in the prior art in fasted-state simulated intestinal fluid (FaSSIF) to form suspensions, respectively. After equilibrium for 1 hour, 2 hours and 4 hours, filter the suspensions to form saturated solutions. Determine the concentration of API in corresponding saturated solution by HPLC.
# [5] = Crystal habit study (PLM); details: for Crystal habit (PLM): dispersed in vacuum pump oil; for Powder flow property: inferred from PLM crystal habit
# Experimental: The polarized light microscope photos of the present disclosure were taken at room temperature with a Zeiss microscope Axio Scope.A1 equipped with an Axiocam 305 color camera and 5×, 10×, 20× and 50× objective lenses.
# Weigh about 10 mg of Forms Z and AL of the present disclosure onto a glass slide, respectively. Disperse each solid with several vacuum pump oil, and then cover with a cover glass. Observe the sample using PLM.
SMILES,Solubility in SGF ([1]; equilibrium 1 hr) [µg/mL],Water uptake at 80% RH [2],Hygroscopicity [2],D10 [3] [μm],D50 [3] [μm],D90 [3] [μm],MV [3] [μm],Solubility in FaSSIF ([4]; equilibrium 1 hr) [µg/mL],Solubility in FaSSIF ([4]; equilibrium 2 hr) [µg/mL],Solubility in FaSSIF ([4]; equilibrium 4 hr) [µg/mL],Solubility compared with Form B [1],Solubility in SGF ([1]; equilibrium 2 hr) [µg/mL],Solubility in SGF ([1]; equilibrium 4 hr) [µg/mL],Crystal habit (PLM) [5],Powder flow property [5],Solubility compared with Form B [4],further results
"CC(C)c1nc2cc(O)ccc2c(=O)n1-c1ccc(C#N)cc1 [Form B, 4-(7-hydroxy-4-oxo-2-propan-2-ylquinazolin-3-yl) benzonitrile, reference compound]",77.5,0.2485,Slightly hygroscopic (increase in mass is less than 2 percent and equal to or greater than 0.2 percent),62.3,1085.0,1331.0,795.2,33.3,34.8,35.9,,,,,,,"solubility at 2 h ([1]; simulated gastric fluid (SGF), simulated gastric fluid, thermodynamic from solid, equilibrium 2 hr): 75.2 µg/mL; solubility at 4 h ([1]; simulated gastric fluid (SGF), simulated gastric fluid, thermodynamic from solid, equilibrium 4 hr): 73.6 µg/mL"
"CC(C)c1nc2cc(O)ccc2c(=O)n1-c1ccc(C#N)cc1 [Form AL, 4-(7-hydroxy-4-oxo-2-propan-2-ylquinazolin-3-yl) benzonitrile]",77.4,,,,,,,,,,better solubility than Form B,78.8,79.5,regular particles,relatively good property on powder flow,,
"CC(C)c1nc2cc(O)ccc2c(=O)n1-c1ccc(C#N)cc1 [Form Z, 4-(7-hydroxy-4-oxo-2-propan-2-ylquinazolin-3-yl) benzonitrile]",79.6,0.0303,Non-hygroscopic (increase in mass is less than 0.2 percent),,,,,31.4,42.7,,better solubility than Form B,90.7,86.7,regular particles,relatively good property on powder flow,better solubility than Form B,"Hygroscopicity compared with Form B [2]: relatively lower hygroscopicity than Form B; solubility at 4 h ([4]; fasted-state simulated intestinal fluid (FaSSIF), thermodynamic from solid, equilibrium 4 hr): 56.1 µg/mL"
"CC(C)c1nc2cc(O)ccc2c(=O)n1-c1ccc(C#N)cc1 [Form D, 4-(7-hydroxy-4-oxo-2-propan-2-ylquinazolin-3-yl) benzonitrile]",98.7,,,53.9,117.2,175.9,116.2,,88.3,87.1,better solubility than Form B,95.4,103.3,,,better solubility than Form B,Uniformity of particle size distribution compared with Form B [3]: more uniform particle size distribution than Form B
